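Five compound concentrations were applied to cells in 96-well plates for 48 hours; endpoints were derived by simple linear interpolation of the resulting dose-response curve. TGI is the concentration that stops growth completely.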
What was measured:
Experiment in all cases: DTP human tumour cell line panel, 48 h
[1] = tested on: UO-31 renal
[2] = tested on: NCI-H23 lung
[3] = tested on: T-47D breast
[4] = tested on: BT-549 breast
[5] = tested on: MDA-MB-231 breast
[6] = tested on: HCT-116 colon
[7] = tested on: SR leukemia
[8] = tested on: A549 NSCLC
[9] = tested on: SF-295 CNS
[10] = tested on: RXF 393 renal
[11] = tested on: SK-MEL-5 melanoma
[12] = tested on: OVCAR-8 ovarian
[13] = tested on: HL-60(TB) leukemia
[14] = tested on: KM12 colon
[15] = tested on: HOP-92 NSCLC
[16] = tested on: TK-10 renal
[17] = tested on: SNB-75 CNS
[18] = tested on: RPMI-8226 leukemia
[19] = tested on: EKVX NSCLC
[20] = tested on: MDA-MB-435
[21] = tested on: MOLT-4 leukemia
[22] = tested on: OVCAR-3 ovarian
[23] = tested on: CAKI-1 renal
[24] = tested on: SK-MEL-2 melanoma
[25] = tested on: OVCAR-5 ovarian
[26] = tested on: HOP-62 NSCLC
[27] = tested on: NCI-H522 lung
[28] = tested on: ACHN renal
[29] = tested on: IGROV1 ovarian
[30] = tested on: SN12C renal
[31] = tested on: SF-268 CNS
[32] = tested on: SK-OV-3 ovarian
[33] = tested on: K-562 leukemia
[34] = tested on: DU-145 prostate
[35] = tested on: NCI-H460 lung
[36] = tested on: HCC-2998 colon
[37] = tested on: LOX IMVI melanoma
[38] = tested on: UACC-62 melanoma
[39] = tested on: SK-MEL-28 melanoma
[40] = tested on: UACC-257 melanoma
[41] = tested on: M14 melanoma
[42] = tested on: HT29 colon
[43] = tested on: NCI-H226 lung
[44] = tested on: MDA-N
[45] = tested on: CCRF-CEM leukemia
[46] = tested on: U251 CNS
[47] = tested on: MCF7 breast
[48] = tested on: OVCAR-4 ovarian
[49] = tested on: HS 578T breast
[50] = tested on: NCI/ADR-RES ovarian
[51] = tested on: 786-0 renal
[52] = tested on: MALME-3M melanoma
[53] = tested on: A498 renal
[54] = tested on: COLO 205 colon
[55] = tested on: SNB-19 CNS
[56] = tested on: HCT-15 colon
[57] = tested on: SF-539 CNS
[58] = tested on: PC-3 prostate
[59] = tested on: SW-620 colon

## Nc1cccc2nsnc12
[1]
  TGI: > 100 µM
[2]
  TGI: > 100 µM
[3]
  TGI: > 100 µM
[4]
  TGI: > 100 µM
[5]
  TGI: > 100 µM
[6]
  TGI: > 100 µM
[7]
  TGI: > 63.5 µM
[8]
  TGI: > 100 µM
[9]
  TGI: > 100 µM
[10]
  TGI: > 100 µM
[11]
  TGI: > 100 µM
[12]
  TGI: > 100 µM
[13]
  TGI: 26.7 µM
[14]
  TGI: > 100 µM
[15]
  TGI: > 100 µM
[16]
  TGI: > 100 µM
[17]
  TGI: > 100 µM
[18]
  TGI: > 86.9 µM
[19]
  TGI: > 100 µM
[20]
  TGI: > 100 µM
[21]
  TGI: > 54.5 µM
[22]
  TGI: > 100 µM
[23]
  TGI: > 100 µM
[24]
  TGI: > 100 µM
[25]
  TGI: > 100 µM
[26]
  TGI: > 100 µM
[27]
  TGI: > 52.2 µM
[28]
  TGI: > 100 µM
[29]
  TGI: > 100 µM
[30]
  TGI: > 100 µM
[31]
  TGI: > 100 µM
[32]
  TGI: > 100 µM
[33]
  TGI: > 85.4 µM
[34]
  TGI: > 100 µM
[35]
  TGI: > 100 µM
[36]
  TGI: > 100 µM
[37]
  TGI: > 100 µM
[38]
  TGI: > 100 µM
[39]
  TGI: > 100 µM
[40]
  TGI: > 100 µM
[41]
  TGI: > 100 µM
[42]
  TGI: > 100 µM
[43]
  TGI: > 100 µM
[44]
  TGI: > 100 µM
[45]
  TGI: > 82.4 µM
[46]
  TGI: > 100 µM
[47]
  TGI: > 100 µM
[48]
  TGI: > 100 µM
[49]
  TGI: > 100 µM
[50]
  TGI: > 100 µM
[51]
  TGI: > 100 µM
[52]
  TGI: > 100 µM
[53]
  TGI: > 100 µM
[54]
  TGI: > 100 µM
[55]
  TGI: > 100 µM
[56]
  TGI: > 100 µM
[57]
  TGI: > 100 µM
[58]
  TGI: > 100 µM
[59]
  TGI: > 100 µM

## CC(OCc1ccccc1)C(NC(=O)C1CSSCC(NC(=O)C(Cc2ccccc2)NC(=O)OCc2ccccc2)C(=O)NC(Cc2ccccc2)C(=O)NC(Cc2cn(C=O)c3ccccc23)C(=O)NC(CCCCNC(=O)OCc2ccccc2)C(=O)NC(C(C)OCc2ccccc2)C(=O)N1)C(N)=O (stereo unspecified)
[1]
  TGI: > 100 µM
[2]
  TGI: > 100 µM
[3]
  TGI: > 63.8 µM
[4]
  TGI: > 66.5 µM
[5]
  TGI: 37.3 µM
[6]
  TGI: 98.7 µM
[7]
  TGI: > 93.4 µM
[8]
  TGI: > 100 µM
[9]
  TGI: > 100 µM
[10]
  TGI: > 100 µM
[11]
  TGI: > 73.8 µM
[12]
  TGI: > 100 µM
[13]
  TGI: 2.89 µM
[14]
  TGI: > 55.5 µM
[15]
  TGI: > 100 µM
[16]
  TGI: > 84.8 µM
[17]
  TGI: > 71.3 µM
[18]
  TGI: 53.3 µM
[19]
  TGI: > 100 µM
[20]
  TGI: > 100 µM
[21]
  TGI: > 37.9 µM
[22]
  TGI: 34 µM
[23]
  TGI: > 100 µM
[24]
  TGI: 28.7 µM
[25]
  TGI: > 100 µM
[26]
  TGI: > 100 µM
[27]
  TGI: 38.5 µM
[28]
  TGI: > 100 µM
[29]
  TGI: > 100 µM
[30]
  TGI: > 100 µM
[31]
  TGI: > 100 µM
[32]
  TGI: > 100 µM
[33]
  TGI: > 100 µM
[34]
  TGI: > 100 µM
[35]
  TGI: > 61.8 µM
[36]
  TGI: > 32.5 µM
[37]
  TGI: 47 µM
[38]
  TGI: > 100 µM
[39]
  TGI: > 100 µM
[40]
  TGI: > 93 µM
[41]
  TGI: > 79.1 µM
[42]
  TGI: > 100 µM
[43]
  TGI: > 100 µM
[44]
  TGI: > 100 µM
[45]
  TGI: > 100 µM
[46]
  TGI: > 70.7 µM
[47]
  TGI: 41.1 µM
[48]
  TGI: > 79.3 µM
[49]
  TGI: > 100 µM
[50]
  TGI: > 100 µM
[51]
  TGI: > 86.9 µM
[52]
  TGI: > 90.4 µM
[53]
  TGI: 63.5 µM
[54]
  TGI: 10.5 µM
[55]
  TGI: > 100 µM
[56]
  TGI: > 100 µM
[57]
  TGI: > 100 µM
[58]
  TGI: > 52.4 µM
[59]
  TGI: > 54.5 µM

## c1ccc2nc3cc4c(cc3nc2c1)NC12CCCCC1CC1=C(CCCC1)N42 (stereo unspecified)
[2]
  TGI: > 10 µM
[3]
  TGI: > 10 µM
[4]
  TGI: 4.72 µM
[5]
  TGI: > 10 µM
[6]
  TGI: > 10 µM
[7]
  TGI: 1.51 µM
[8]
  TGI: > 10 µM
[9]
  TGI: > 10 µM
[10]
  TGI: 6.3 µM
[11]
  TGI: 5.16 µM
[12]
  TGI: > 10 µM
[13]
  TGI: 8.31 µM
[14]
  TGI: 8.14 µM
[15]
  TGI: > 10 µM
[16]
  TGI: > 10 µM
[17]
  TGI: 7.06 µM
[18]
  TGI: 5.52 µM
[19]
  TGI: > 10 µM
[20]
  TGI: 3.9 µM
[21]
  TGI: 5.25 µM
[22]
  TGI: 5.03 µM
[23]
  TGI: > 10 µM
[24]
  TGI: 9.53 µM
[25]
  TGI: > 10 µM
[26]
  TGI: > 10 µM
[27]
  TGI: 8.37 µM
[28]
  TGI: > 10 µM
[29]
  TGI: > 10 µM
[30]
  TGI: 6.48 µM
[31]
  TGI: > 10 µM
[32]
  TGI: > 10 µM
[33]
  TGI: 5.5 µM
[34]
  TGI: > 10 µM
[35]
  TGI: > 10 µM
[36]
  TGI: > 10 µM
[37]
  TGI: > 10 µM
[38]
  TGI: 9.63 µM
[39]
  TGI: > 10 µM
[40]
  TGI: 7.03 µM
[41]
  TGI: 6.35 µM
[42]
  TGI: > 10 µM
[43]
  TGI: 6.57 µM
[44]
  TGI: 7.06 µM
[45]
  TGI: 4.9 µM
[46]
  TGI: > 10 µM
[47]
  TGI: > 10 µM
[48]
  TGI: 6.96 µM
[49]
  TGI: 8.04 µM
[50]
  TGI: > 10 µM
[51]
  TGI: > 10 µM
[52]
  TGI: 5.33 µM
[53]
  TGI: > 10 µM
[54]
  TGI: 3.6 µM
[55]
  TGI: > 10 µM
[56]
  TGI: > 10 µM
[57]
  TGI: 7.7 µM
[58]
  TGI: 6.64 µM
[59]
  TGI: > 10 µM
